The text below walks through data of patent EP0834302A1, “Compositions comprising glutathione liposomes” (Boehringer Ingelheim Limited, priority 1996, dated 1998).

The structures appear in SMILES notation.

Data set [1] is described as follows: Depth of glutathione penetration into the skin: tape stripping with DPPH anti-free radical assay. The protocol:
The depth of glutathione penetration into the skin was determined by comparing two different galenic forms: free glutathione in solution (FG) and glutathione encapsulated in a liposome (LG). Since glutathione is a highly reactive free radical scavenger, its presence even in small quantities can be detected by spectroscopic methods.
Gluthione preparations are applied to the skin, and tape strippings are taken after some fixed interval of time. The tape strippings are assayed for anti-free radical activity by DPPH (1,1 Diphenyl-2-picrylhydrazyl) at 8.76 x 10^-3 % (w/v) in methanol) colouration/ discolouration tests (Kim et al. Proc. 17th IFSCC Congress (Yokohama), Vol. 1: 3-14, 1994). […]
On the arms of each volunteer, the 3 test sites were determined in a random way: one site for application of water (negative control), one for application of free glutathione (FG) and one for application of liposome encapsulated glutathione (LG). […]
5 tape strippings were carried out on the control sites after 2µl/cm^2 application of distilled water and a light massage. […] The change in colour was measured on a spectrophotometer at 517nm.
Each test solution was then applied to the designated sites (2µl/cm^2) by slight massaging and left to dry for 30 minutes. […] Colour changes were recorded as described above.
For orientation: Loss of DPPH colour is used to gauge radical scavenging.

Data set [2] has as its system UVB induced skin erythema. Particulars: applied topically in a simple oil-in-water emulsion or as a gel preparation; Int. J. Cos. Sci. 17:91-103, 1995; cited from earlier work.

As to `N[C@@H](CCC(=O)N[C@@H](CS)C(=O)NCC(=O)O)C(=O)O` [FG, Reduced glutathione], the “Tape strips containing residual scavenger activity, Mean value” in data set [1] (in vivo) was determined as 1.3. The depth of penetration entry in data set [1] (result in words, presence of DPPH reactive substances on successive strips) was “absence of significant penetration”.

On to `N[C@@H](CCC(=O)N[C@@H](CS)C(=O)NCC(=O)O)C(=O)O` [Glutathione], for which the “inhibiting UVB induced skin erythema” value in data set [2] is given as “ineffective”.
